These results are taken from article PMC12136037, “Type II kinase inhibitors that target Parkinson’s disease–associated LRRK2” (Science Advances, 2025).

The target of test [1] is T1, ~100 representative kinases (Homo sapiens, UniProt P54753).
T1 construct: Recombinant protein kinase domains with a concentration of 2 μM
T1 sequence (P54753 34-998): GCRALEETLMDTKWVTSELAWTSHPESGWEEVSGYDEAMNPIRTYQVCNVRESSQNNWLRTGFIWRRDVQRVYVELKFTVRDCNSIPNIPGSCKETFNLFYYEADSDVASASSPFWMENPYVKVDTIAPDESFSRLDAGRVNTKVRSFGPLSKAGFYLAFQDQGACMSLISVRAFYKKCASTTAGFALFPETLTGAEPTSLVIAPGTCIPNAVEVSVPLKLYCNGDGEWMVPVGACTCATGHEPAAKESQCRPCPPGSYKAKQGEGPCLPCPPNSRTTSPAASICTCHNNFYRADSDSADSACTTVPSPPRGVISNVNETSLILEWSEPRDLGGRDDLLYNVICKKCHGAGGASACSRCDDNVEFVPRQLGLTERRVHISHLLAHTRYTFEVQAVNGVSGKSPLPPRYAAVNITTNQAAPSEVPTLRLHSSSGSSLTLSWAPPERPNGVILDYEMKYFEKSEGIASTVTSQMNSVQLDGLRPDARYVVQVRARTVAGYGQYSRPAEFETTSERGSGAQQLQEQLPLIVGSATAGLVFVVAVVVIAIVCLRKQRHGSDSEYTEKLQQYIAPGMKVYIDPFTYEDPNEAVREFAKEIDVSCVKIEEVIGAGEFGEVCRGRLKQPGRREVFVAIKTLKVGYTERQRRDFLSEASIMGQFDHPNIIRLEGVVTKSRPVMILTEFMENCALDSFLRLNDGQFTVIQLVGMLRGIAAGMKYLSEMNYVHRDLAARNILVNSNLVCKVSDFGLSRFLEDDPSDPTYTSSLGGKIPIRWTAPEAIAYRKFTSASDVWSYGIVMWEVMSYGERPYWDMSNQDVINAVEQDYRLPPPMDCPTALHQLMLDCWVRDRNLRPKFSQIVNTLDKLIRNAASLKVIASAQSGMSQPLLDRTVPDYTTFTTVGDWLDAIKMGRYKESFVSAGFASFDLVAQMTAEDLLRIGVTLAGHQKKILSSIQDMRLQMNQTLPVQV
Description: DSF 100 kinase selectivity screen.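 Note: compound tested at 20 µM.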 In kind it is binding. As to conditions: Protein EPHB3A; average of three replicates. The method, boiled down:
(§1)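 Each kinase domain, at 2 μM, is mixed with 20 μM test compound and SYPRO Orange in Hepes (20 mM, pH 7.5) with 500 mM NaCl. Temperature is then raised at 3°C/min and fluorescence-monitored unfolding yields the melting temperature change, ΔTm in degrees Celsius.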

For test [2], the target named is T2, ~100 representative kinases (Homo sapiens, UniProt P55201).
T2 construct: Recombinant protein kinase domains with a concentration of 2 μM
T2 sequence (P55201 1-1214): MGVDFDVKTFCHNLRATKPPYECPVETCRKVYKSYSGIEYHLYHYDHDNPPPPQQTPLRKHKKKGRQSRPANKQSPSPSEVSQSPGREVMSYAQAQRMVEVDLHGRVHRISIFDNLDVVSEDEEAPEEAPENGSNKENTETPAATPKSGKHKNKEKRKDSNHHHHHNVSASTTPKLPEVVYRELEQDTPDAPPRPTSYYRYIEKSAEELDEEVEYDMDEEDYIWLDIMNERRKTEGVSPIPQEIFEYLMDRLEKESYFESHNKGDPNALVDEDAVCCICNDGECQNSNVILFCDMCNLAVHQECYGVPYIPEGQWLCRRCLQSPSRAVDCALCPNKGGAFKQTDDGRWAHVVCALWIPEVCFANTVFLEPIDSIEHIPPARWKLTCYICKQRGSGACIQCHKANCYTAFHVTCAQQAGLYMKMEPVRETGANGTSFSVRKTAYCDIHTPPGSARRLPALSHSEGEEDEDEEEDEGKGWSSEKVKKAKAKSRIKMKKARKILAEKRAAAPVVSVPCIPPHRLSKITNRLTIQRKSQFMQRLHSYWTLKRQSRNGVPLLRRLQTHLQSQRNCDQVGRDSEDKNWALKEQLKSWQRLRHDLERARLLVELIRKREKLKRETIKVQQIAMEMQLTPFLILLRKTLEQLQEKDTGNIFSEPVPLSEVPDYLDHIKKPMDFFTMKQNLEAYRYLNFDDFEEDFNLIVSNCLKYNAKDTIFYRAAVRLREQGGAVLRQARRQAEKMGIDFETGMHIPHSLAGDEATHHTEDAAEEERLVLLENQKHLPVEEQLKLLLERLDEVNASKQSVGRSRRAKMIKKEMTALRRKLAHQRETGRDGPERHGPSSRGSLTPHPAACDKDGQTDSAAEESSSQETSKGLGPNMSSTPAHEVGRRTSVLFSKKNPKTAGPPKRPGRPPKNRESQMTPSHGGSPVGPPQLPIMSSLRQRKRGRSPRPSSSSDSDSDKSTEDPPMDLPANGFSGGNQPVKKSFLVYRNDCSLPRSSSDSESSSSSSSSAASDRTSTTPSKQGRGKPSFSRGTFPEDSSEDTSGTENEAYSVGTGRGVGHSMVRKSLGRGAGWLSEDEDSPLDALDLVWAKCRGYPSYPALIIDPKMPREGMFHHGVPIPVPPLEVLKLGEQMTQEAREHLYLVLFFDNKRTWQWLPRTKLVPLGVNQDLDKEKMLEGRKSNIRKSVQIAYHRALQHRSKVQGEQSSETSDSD
The experiment in a line: DSF 100 kinase selectivity screen.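 Note: compound tested at 20 µM.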 As to conditions: Protein BRPF1; average of three replicates. It counts as binding. The method, boiled down:
as §1

For the compound `Cc1ccc(C(=O)Nc2ccc(CN3CCN(C)CC3)c(C(F)(F)F)c2)cc1C#Cc1c[nH]c2ncnc(N3CCOCC3)c12` [Compound 1], the figures for the dTm in test [1] and in test [2] were 4.94 K and -0.28 K, respectively. `O=C(Nc1ccc(F)cc1)C1(C(=O)Nc2cccc(-c3c[nH]c4ncnc(N5CCOCC5)c34)c2)CC1` [Compound 2]: the dTm in test [1] is recorded as 2.82 K; in test [2], 0.13 K. Take `O=C(Nc1cccc(-c2c[nH]c3ncnc(N4CCOCC4)c23)c1)c1cccn(-c2ccc(F)cc2)c1=O` [Compound 4]: the dTm was 3.66 K in test [1] and -1.48 K in test [2].

In the case of `Cc1cc(NC(=O)C2(C(=O)Nc3ccc(F)cc3)CC2)cc(-c2c[nH]c3ncnc(N4CCOCC4)c23)c1` [Compound 6], the values for the dTm in test [1] and in test [2] were 0.34 K and 0.87 K, respectively. Turning to `O=C(Nc1cccc(-c2c[nH]c3ncnc(N4CCOCC4)c23)c1)C1(C(=O)Nc2cccc3c2CCC3)CC1` [Compound 11], the dTm was determined as 0.28 K in test [1] and 1.49 K in test [2]. On to `O=C(Nc1ccccc1)C1(C(=O)Nc2cccc(-c3c[nH]c4ncnc(N5CCOCC5)c34)c2)CC1` [Compound 12], for which the dTm was 3.99 K in test [1] and -0.42 K in test [2]. On to `O=C(Nc1ccc(Cl)cc1)C1(C(=O)Nc2cccc(-c3c[nH]c4ncnc(N5CCOCC5)c34)c2)CC1` [Compound 13], for which the dTm is 5.32 K in test [1] and -0.65 K in test [2].

As for `Cc1ccc(NC(=O)C2(C(=O)Nc3cccc(-c4c[nH]c5ncnc(N6CCOCC6)c45)c3)CC2)cc1` [Compound 14], the dTm in test [1] was 3.71 K; in test [2], -0.72 K.

With `CCc1ccc(NC(=O)C2(C(=O)Nc3cccc(-c4c[nH]c5ncnc(N6CCOCC6)c45)c3)CC2)cc1` [Compound 15], the dTm in test [1] is 4.01 K; in test [2] it was -0.75 K. The matching figures for `COc1ccc(NC(=O)C2(C(=O)Nc3cccc(-c4c[nH]c5ncnc(N6CCOCC6)c45)c3)CC2)cc1` [Compound 16]: 0.59 K and -0.96 K.

Regarding `O=C(Nc1cccc(-c2c[nH]c3ncnc(N4CCOCC4)c23)c1)C1(C(=O)Nc2ccc(F)c(F)c2)CC1` [Compound 17], the dTm in test [1] is 1.94 K; in test [2], 0.79 K.

Take `O=C(Nc1cccc(-c2c[nH]c3ncnc(N4CCOCC4)c23)c1)C1(C(=O)Nc2ccc(F)c(Cl)c2)CC1` [Compound 18]: the results for the dTm in test [1] and in test [2] were 2.57 K and 1.47 K, respectively. The matching figures for `O=C(Nc1cccc(-c2c[nH]c3ncnc(N4CCOCC4)c23)c1)C1(C(=O)Nc2ccc(F)c(Br)c2)CC1` [Compound 19]: 1.12 K and 2.17 K.

`Cc1cc(NC(=O)C2(C(=O)Nc3cccc(-c4c[nH]c5ncnc(N6CCOCC6)c45)c3)CC2)ccc1F` [Compound 20]: the dTm in test [1] came out at 3.99 K; in test [2] it was 0.26 K.

In the case of `COc1cc(NC(=O)C2(C(=O)Nc3cccc(-c4c[nH]c5ncnc(N6CCOCC6)c45)c3)CC2)ccc1F` [Compound 21], the results for the dTm in test [1] and in test [2] were 0.65 K and -0.32 K, respectively. As to `CC(C)(C)c1cccc(NC(=O)C2(C(=O)Nc3cccc(-c4c[nH]c5ncnc(N6CCOCC6)c45)c3)CC2)c1` [Compound 22], the dTm in test [1] was 0.59 K; in test [2] it was 1.91 K.

`O=C(Nc1cccc(-c2c[nH]c3ncnc(N4CCOCC4)c23)c1)C1(C(=O)Nc2ccc(F)cc2F)CC1` [Compound 23]: the dTm in test [1] stood at 1.84 K; in test [2], 0.18 K.

Regarding `Cc1cc(F)ccc1NC(=O)C1(C(=O)Nc2cccc(-c3c[nH]c4ncnc(N5CCOCC5)c34)c2)CC1` [Compound 24], the dTm in test [1] is 1.32 K; in test [2], -0.10 K.

As to `O=C(Nc1cccc(-c2c[nH]c3ncnc(N4CCOCC4)c23)c1)C1(C(=O)Nc2cc(Br)c(F)cc2F)CC1` [Compound 25], the figures for the dTm in test [1] and in test [2] were -0.88 K and 1.93 K, respectively. Turning to `O=C(Nc1cccc(-c2c[nH]c3ncnc(N4CCOCC4)c23)c1)C1(C(=O)Nc2ccc(F)c(Br)c2F)CC1` [Compound 26], the dTm is listed as -0.51 K in test [1] and 1.97 K in test [2]. The matching figures for `O=C(Nc1cc(F)cc(Br)c1)C1(C(=O)Nc2cccc(-c3c[nH]c4ncnc(N5CCOCC5)c34)c2)CC1` [Compound 27]: -2.17 K and 2.67 K. Regarding `CC(C)(C)c1cc(NC(=O)Nc2cccc(-c3c[nH]c4ncnc(N5CCOCC5)c34)c2)n(-c2ccc3ncccc3c2)n1` [Compound 28], the dTm came to 11.98 K in test [1] and 0.57 K in test [2]. As for `Cc1ccc(-n2nc(C(C)(C)C)cc2NC(=O)Nc2cccc(-c3c[nH]c4ncnc(N5CCOCC5)c34)c2)cc1` [Compound 29], the values for the dTm in test [1] and in test [2] were -2.20 K and 0.08 K, respectively. The matching figures for `Cc1ccc(-n2nc(C(C)(C)C)cc2NC(=O)Nc2cccc(-c3c[nH]c4nc(Cl)nc(N5CCOCC5)c34)c2)cc1` [Compound 30]: 0.0373 K and -1.99 K.

For the compound `CC(=O)N1CCN(c2nc(Cl)nc3[nH]cc(-c4cccc(NC(=O)Nc5cc(C(C)(C)C)nn5-c5ccc(C)cc5)c4)c23)CC1` [Compound 31], the values for the dTm in test [1] and in test [2] were -1.56 K and -0.70 K, respectively.

On to `CCSc1nc(NC)c2c(-c3cccc(NC(=O)Nc4cc(C(C)(C)C)nn4-c4ccc(C)cc4)c3)c[nH]c2n1` [Compound 32], for which the dTm is reported as -3.33 K in test [1] and -0.60 K in test [2]. Take `COc1cc(C(=O)N2CCOCC2)c(F)cc1Nc1nc(N(C)C)c2c(Cl)c[nH]c2n1` [Compound 36]: the dTm is reported as -1.35 K in test [1] and -1.63 K in test [2].

With `COc1cc(S(C)(=O)=O)ccc1Nc1nc(N(C)C)c2c(Cl)c[nH]c2n1` [Compound 37], the dTm in test [1] is reported as -1.89 K; in test [2], -0.21 K.

Regarding `COc1cc2c(Oc3ccc(NC(=O)C4(C(=O)Nc5ccc(F)cc5)CC4)cc3F)ccnc2cc1OCCCN1CCOCC1` [Foretinib, reference compound], the results for the dTm in test [1] and in test [2] were 13.52 K and 0.26 K, respectively. In turn, `Cc1ccc(C(=O)Nc2ccc(CN3CCN(C)CC3)c(C(F)(F)F)c2)cc1C#Cc1cnc2cccnn12` [Ponatinib, reference compound] showed a dTm in test [1] of 13.49 K. `CN[C@@H]1C[C@H]2O[C@@](C)([C@@H]1OC)n1c3ccccc3c3c4c(c5c6ccccc6n2c5c31)C(=O)NC4` [Staurosporine] showed a dTm in test [1] of 7.02 K.
